What was measured:
[1] = system: hSOD1-G93A transgenic mice; assay type: in vivo; conditions: for Effect on delaying the progression of amyotrophic lateral sclerosis (in words): judged from fall time and mice surviving more than 120 days; for Falling time (s) On 1st day of gavage / Falling time (s) On 7th day of gavage / Falling time (s) On 14th day of gavage / Falling time (s) On 21th day of gavage / Falling time (s) On 28th day of gavage: intragastric once a day, 40 mg/kg (positive control 2 mg/kg), rod 12 r/min, cut-off 10 min; for Falling time (s) On 1st day of gavage: 1 h after 1st administration; for Falling time (s) On 7th day of gavage: 1 h after 7th administration; for Falling time (s) On 14th day of gavage: 1 h after 14th administration; for Falling time (s) On 21th day of gavage: 1 h after 21st administration; for Falling time (s) On 28th day of gavage: 1 h after 28th administration
Experimental: (§1) 10 two-months wild-type BALB/C mice were used as the normal control group, and 110 two-months hSOD1-G93A transgenic mice were randomly divided into 11 groups, 10 mice for each group, and 11 groups are blank group, positive control group, the drug compositions 1-3 of the present invention groups, and the control 1-6 groups, respectively.
All mice were adaptively fed for three weeks, and a rotating rod experiment was performed once a week. The diameter of the rotating rod was 3.5 cm, and its rotating speed was 12 r/min. Experiment on each mouse was carried out three times in parallel, with a 5 min interval. The longest time recorded was the fall time of mice, the mice with a fall time of shorter than 7 min in the third rotating rod experiment were excluded, and then mice received drugs by intragastric administration, in which the normal control group and the blank group were given physiological saline, while the positive control group, the drug combinations 1-3 groups, and the control groups 1-6 were given corresponding drugs, with the volume of 0.5 ml. Amongst, the gavage dose of positive control group was 2 mg/kg body weight, and the gavage dose of drug combinations 1-3 and controls 1-6 groups was both 40 mg/kg body weight. For all of groups, drugs were given once a day for 4 weeks. After 1 h of the 1st, 7th, 14th, 21st, and 28th intragastric administrations, a stick-rotation experiment was performed. In one experiment, each mouse was tested 3 times at interval of 5 minutes, and the longest time recorded was the fall time of mice. […] After the 28th gavage, the mice were continually fed, and the number of mice surviving for more than 120 days in each group was recorded, in which if they were placed in the supine position, the mice could not turn to the prone position within 30 S, and thus they were determined as dead.

[2] = system: hSOD1-G93A transgenic mice; test: Number of mice surviving more than 120 days; assay type: in vivo; conditions: intragastric once a day for 4 weeks, 40 mg/kg (positive control 2 mg/kg), 8-9 mice per group
Experimental: as §1
All mice were adaptively fed for three weeks, and a rotating rod experiment was performed once a week. The diameter of the rotating rod was 3.5 cm, and its rotating speed was 12 r/min. Experiment on each mouse was carried out three times in parallel, with a 5 min interval. The longest time recorded was the fall time of mice, the mice with a fall time of shorter than 7 min in the third rotating rod experiment were excluded, and then mice received drugs by intragastric administration, in which the normal control group and the blank group were given physiological saline, while the positive control group, the drug combinations 1-3 groups, and the control groups 1-6 were given corresponding drugs, with the volume of 0.5 ml. Amongst, the gavage dose of positive control group was 2 mg/kg body weight, and the gavage dose of drug combinations 1-3 and controls 1-6 groups was both 40 mg/kg body weight. […] In one experiment, each mouse was tested 3 times at interval of 5 minutes, and the longest time recorded was the fall time of mice. […]

Row | Compound | Effect on delaying the progression of amyotrophic lateral sclerosis (in words) ([1]; gavage 4 weeks) | Falling time (s) On 1st day of gavage [1] | Falling time (s) On 7th day of gavage [1] | Falling time (s) On 14th day of gavage [1] | Falling time (s) On 21th day of gavage [1] | Falling time (s) On 28th day of gavage [1] | Survival numbers (number of mice surviving for more than 120 days) [2] | Indexes for the fall time and the number of mice surviving more than 120 days, comparison between groups (in words) ([1]; gavage 4 weeks)
1 | O=C(/C=C/c1ccc(O)c(O)c1)O[C@@H]1C[C@](O)(C(=O)O)C[C@@H](O)[C@H]1O [Control 1, 3-O-caffeoylquinic acid] | showed to some extent the effect on delaying the progression of amyotrophic lateral sclerosis | 468.9 ± 26.1 s | 315.3 ± 27.6 s | 221.5 ± 22.8 s | 127.8 ± 19.5 s | 89.1 ± 18.5 s | 3 | –
2 | creatine phosphate sodium [Control 6] | don't have obvious effect on delaying the progression of this disease | 475.8 ± 22.8 s | 284.6 ± 19.3 s | 155.8 ± 24.8 s | 71.3 ± 12.3 s | 44.78 ± 11.3 s | 2 | roughly equivalent to those in the blank group
3 | Nc1nc2ccc(OC(F)(F)F)cc2s1 [Positive control, Riluzole] | – | 479.2 ± 31.8 s | 389.5 ± 27.7 s | 259.3 ± 29.5 s | 187.4 ± 17.5 s | 129.3 ± 15.4 s | – | –

Reference: US20210137951A1, “DRUG COMBINATION FOR TREATMENT OF AMYOTROPHIC LATERAL SCLEROSIS, PREPARATION METHOD AND USE THEREOF” (priority 2018, published 2021)
